Data taken from patent US5846742A, “Selecting substances for treating glucocorticoid-mediated inflammation or immune diseases using Tripterygium wilfordii Hook F extracts” (Board of Regents, The University of Texas System, priority 1997, dated 1998).
≈ marks a conversion by molar mass, not a printed value. Where “and” joins values, the source holds several entries; their conditions need not be identical. Identical values can stand only once. Like-named read-outs stand apart in the source and are kept apart here.

Legend:
[1] = tested on: T cells; test: PHA-induced T cell proliferation, wilforonide (924); type: cell-based, human; details: for Mean cpm: control 42.0
Excerpt: The molecular groups responsible for the immune suppressive function of these compounds are unknown, however, the core structure of diterpenoids which may be related to their activity consists of an α-β-unsaturated 5 element lactone which can be identified by Kedde reagents. HPLC was used to fractionate the ethyl acetate extract of TwHF and the Kedde reagents were employed to trace the fractions. Then, the effect of selected fractions on the in vitro IL-2 production and [^3 H]-thymidine incorporation by PHA-activated T cells was determined. Fractions that inhibit these T cell functions were selected and the chromatographic pattern was identified with HPLC. One fraction was further purified with HPLC and crystallized repeatedly; a pure, crystallized compound was obtained and designated "924".
[^3 H]-thymidine was added for the last 14 hours of culture. Each concentration was run in quadruplicate (4 times) and the results for each concentration averaged to provide a mean. The mean cpm×10^3 values were combined and expressed as a percent of T cell inhibition.
or absence of the indicated concentrations of wilforonide for 3 days.
[^3 H]-Thymidine was added for the last 14 hours. Data are from 4
independent experiments.

[2] = tested on: T cells; test: Antigen (SK)-induced T cell proliferation, wilforonide; type: cell-based; details: Homo sapiens, read-out: % inhibition of [3H]-thymidine incorporation
[3] = Solubility of 924; type: physicochemical
Procedure: The dried woody skinned part of the root of TwHF was extracted with ethanol. The solution was concentrated at reduced pressure, and the residue was dissolved in ethyl acetate. This solution was passed through Al2 O3 with ethanol as an eluent. The eluate was evaporated and the residue chromatographed on silica gel with chloroform, chloroform-ether and ethyl acetate as successive eluent. The fractions eluted with chloroform-ether were purified on a preparative HPLC column packed with Nova-Pak C18 and equipped with a 214 detector. Methanol-water was the mobile phase. A fraction having positive reaction to Kedde reagent was collected and extracted with chloroform. The chloroform solution was evaporated to dryness and the residue crystallized in dichloromethane-hexane to yield 924.

[4] = tested on: IL-2R; test: IL-2R expression by PHA-activated T cells, 924; type: cell-based, human
[5] = tested on: T cells; test: Antigen (SK)-induced T cell proliferation, wilforonide; type: cell-based, human; details: for IC50: 120 h, read-out: ID50, antigen-induced T cell proliferation; for IC50 / inhibition at 0.01 µg/mL: 5 days
Procedure: The cells were allowed to culture for five days. The cultures were pulsed with [^3 H]-thymidine for the last 24 hours of culture. […] ID50 were calculated based on the regression formula by using the fx-3600 calculator. T cells cultured with SK or SK+IL-2 or SK+PMA gave cpm of 1.87×10^3, 4.99×10^3 and 6.67×10^3, respectively.
*T cells were cultured with or without SK(1 mg/ml) or SK plus IL2(50
μ/ml) or SK plus PMA(.2 ng/ml) in the presence or absence of indicated
concentrations of wilforonide for 5 days. Cultures were pulsed with
[^3 H]-thymidine for the last 24 hours. Data represent the mean of th
experiments. ID50 were calculated based on the regression formula by
using the fx3600 calculator. T cells cultured with SK or SL + IL2 or SK +

[6] = tested on: IL-2 production by T cells; test: PHA-induced IL-2 production, wilforonide (924); type: cell-based, human; details: for IL-2, mean: control 21.395
Procedure: The effects of wilforonide on IL-2 production was also examined. […] Cell-free supernatants were diluted 1 to 80 and the IL-2 content assayed with CTLL-2 cells.

[7] = tested on: PHA-stimulated T cells; test: Viability of PHA-stimulated T cells, 924; type: cell-based, human
[8] = Viability of PHA-stimulated T cells, 924; type: cell-based, human; details: t cells; 1,000 ng/ml; 0 ng/ml=22% of control; FIG. 20D; read-out: Cell viability, % of control

C[C@]12CCC3=C(COC3=O)[C@@H]1CCC(=O)C2 (relative stereo) [Wilforonide, naphtho-[1,2-c] furan-3,7(1H,5H)-dione, 4,5a,6,8,9,9a-hexahydro-5a-methyl(5aR-trans)-[104331-87-5]]
cpm, individual experiments 1-4 ([1]; 10 ng/ml, PHA 0.5 μg/ml, 3 days): 23.5 cpm × 10^3 and 37.1 cpm × 10^3 and 57.5 cpm × 10^3 and 36.3 cpm × 10^3
Mean cpm ([1]; 10 ng/ml): 38.6 cpm × 10^3
cpm, individual experiments 1-4 ([1]; 50 ng/ml): 30.2 cpm × 10^3 and 35.3 cpm × 10^3 and 57.0 cpm × 10^3 and 44.8 cpm × 10^3
Mean cpm ([1]; 50 ng/ml): 41.8 cpm × 10^3
cpm, individual experiments 1-4 ([1]; 100 ng/ml): 13.0 cpm × 10^3 and 37.6 cpm × 10^3 and 55.2 cpm × 10^3 and 26.7 cpm × 10^3
Mean cpm ([1]; 100 ng/ml): 33.1 cpm × 10^3
cpm, individual experiments 1-4 ([1]; 200 ng/ml): 6.8 cpm × 10^3 and 33.9 cpm × 10^3 and 56.5 cpm × 10^3 and 26.4 cpm × 10^3
Mean cpm ([1]; 200 ng/ml): 30.9 cpm × 10^3
cpm, individual experiments 1-4 ([1]; 500 ng/ml): 0.3 cpm × 10^3 and 19.7 cpm × 10^3 and 30.9 cpm × 10^3 and 11.3 cpm × 10^3
Mean cpm ([1]; 500 ng/ml): 15.6 cpm × 10^3
T cell proliferation ([1]; 1,000 ng/ml, FIG. 20C): no cell proliferation was evident
inhibition at 0.01 µg/mL ([1]; Homo sapiens, T-cell, 72 h, 10 ng/ml, PHA 0.5 μg/ml, 3 days): 8.09%
IC50 ([1]; Homo sapiens, T-cell, 72 h, PHA 0.5 μg/ml, 3 days, read-out: ID50, PHA-induced T cell proliferation): 0.391 µg/mL (≈ 1.78 µM)
inhibition at 0.001 µg/mL ([1]; Homo sapiens, T-cell, 1 ng/ml, PHA, read-out: Degree of inhibition of T cell proliferation): 14.6%
inhibition at 0.05 µg/mL ([1]; Homo sapiens, T-cell, 50 ng/ml, PHA): 0.48%
inhibition at 0.1 µg/mL ([1]; Homo sapiens, T-cell, 100 ng/ml, PHA, read-out: % inhibition): 21.2%
inhibition at 0.1 µg/mL ([1]; Homo sapiens, T-cell, 100 ng/ml, PHA, read-out: Degree of inhibition of T cell proliferation): 54.2%
inhibition at 0.2 µg/mL ([1]; Homo sapiens, T-cell, 200 ng/ml, PHA): 26.4%
inhibition at 0.5 µg/mL ([1]; Homo sapiens, T-cell, 500 ng/ml, PHA): 62.9%
inhibition at 0.05 µg/mL ([2]; SK + IL-2, 50 ng/ml): 12.4%
inhibition at 0.1 µg/mL ([2]; SK + IL-2, 100 ng/ml): 14.5%
inhibition at 1 µg/mL ([2]; SK + IL-2, 1,000 ng/ml): 86.2%
inhibition at 0.1 µg/mL ([2]; SK + PMA, 100 ng/ml): 20.3%
inhibition at 1 µg/mL ([2]; SK + PMA, 1,000 ng/ml): 65.4%
inhibition at 0.05 µg/mL ([2]; SK, 50 ng/ml): 44.5%
inhibition at 0.1 µg/mL ([2]; SK, 100 ng/ml): 49.1%
inhibition at 0.5 µg/mL ([2]; SK, 500 ng/ml): 75.2%
inhibition at 1 µg/mL ([2]; SK, 1,000 ng/ml): 84.2%
Solubility [3]: soluble in ethanol, and ethanol and chloroform
IL-2R expression ([4]; 500 ng/ml): did not affect the IL-2R expression
IL-2R expression ([4]; PHA-activated T cells): no effect
IC50 ([5]; Homo sapiens, T-cell, SK + IL-2 (50 u/ml)): 0.476 µg/mL
IC50 ([5]; Homo sapiens, T-cell, SK + PMA (0.2 ng/ml)): 0.613 µg/mL
IC50 ([5]; Homo sapiens, T-cell, SK): 0.127 µg/mL (≈ 0.577 µM)
inhibition at 0.01 µg/mL ([5]; Homo sapiens, T-cell, SK + IL-2, 10 ng/ml, read-out: % inhibition of [3H]-thymidine incorporation): 19.6%
inhibition at 0.5 µg/mL ([5]; Homo sapiens, T-cell, SK + IL-2, 500 ng/ml, read-out: % inhibition of [3H]-thymidine incorporation): 61.7%
inhibition at 0.01 µg/mL ([5]; Homo sapiens, T-cell, SK + PMA, 10 ng/ml, read-out: % inhibition of [3H]-thymidine incorporation): 22.7%
inhibition at 0.05 µg/mL ([5]; Homo sapiens, T-cell, SK + PMA, 50 ng/ml, read-out: % inhibition of [3H]-thymidine incorporation): 17.7%
inhibition at 0.5 µg/mL ([5]; Homo sapiens, T-cell, SK + PMA, 500 ng/ml, read-out: % inhibition of [3H]-thymidine incorporation): 53.3%
inhibition at 0.01 µg/mL ([5]; Homo sapiens, T-cell, SK, 10 ng/ml, read-out: % inhibition of [3H]-thymidine incorporation): 42.1%
Inhibition of response to SK on adding IL2 or PMA ([5]; low concentrations): partially overcome by adding IL2 or PMA
IL-2, individual experiments 1-4 ([6]; 10 ng/ml, PHA 1 μg/ml, overnight): 1.628 unit/ml and 20.723 unit/ml and 27.374 unit/ml and 3.385 unit/ml
IL-2, mean ([6]; 10 ng/ml): 13.278 unit/ml
IL-2, individual experiments 1-4 ([6]; 50 ng/ml): 1.664 unit/ml and 26.983 unit/ml and 4.509 unit/ml and 6.042 unit/ml
IL-2, mean ([6]; 50 ng/ml): 9.795 unit/ml
IL-2, individual experiments 1-4 ([6]; 100 ng/ml): 0.800 unit/ml and 11.160 unit/ml and 10.170 unit/ml and 4.982 unit/ml
IL-2, mean ([6]; 100 ng/ml): 6.803 unit/ml
IL-2, individual experiments 1-4 ([6]; 200 ng/ml): 0.850 unit/ml and 10.301 unit/ml and 8.502 unit/ml and 1.773 unit/ml
IL-2, mean ([6]; 200 ng/ml): 5.357 unit/ml
inhibition at 0.01 µg/mL ([6]; Homo sapiens, T-cell, 10 ng/ml): 37.9%
inhibition at 0.05 µg/mL ([6]; Homo sapiens, T-cell, 50 ng/ml): 54.2%
inhibition at 0.1 µg/mL ([6]; Homo sapiens, T-cell, 100 ng/ml): 68.2%
inhibition at 0.2 µg/mL ([6]; Homo sapiens, T-cell, 200 ng/ml): 75%
IC50 ([6]; Homo sapiens, T-cell, PHA 1 μg/ml, overnight, read-out: ID50, PHA-induced IL-2 production): 0.0421 µg/mL (≈ 0.191 µM)
Viability of PHA-stimulated T cells ([7]; 1 ng/ml up to 1000 ng/ml): did not affect the viability of PHA-stimulated T cells
Cell viability ([7]; 1 to 500 ng/ml): did not differ significantly in terms of cell viability
in vitro ID50/LD50 of T cell proliferation ([7]; t cells): more than 10
viability [8]: 35%
